In patent publication US12077503B2, “Substituted cyclic amides and their use as herbicides” (FMC CORPORATION, priority 2015, dated 2024):

What was measured:
Assay type in all cases: in vivo
Kochia (Kochia scoparia) [1] = assay: Test A preemergence; conditions: Bassia scoparia, pre-emergence, 240 h, 0 to 100 scale where 0 is no effect and 100 is complete control, read-out: Kochia plant response rating
Summary of the method: (§1)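 Greenhouse, ~10 d after spray; visual injury vs untreated controls, 0 = no effect, 100 = complete control. Preemergence: directed soil spray over planted seeds. Postemergence: plants 2–10 cm, 1–2 leaf stage. Loam/sand blend. Compound in non-phytotoxic solvent with surfactant.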

[2] = system: barnyardgrass (Echinochloa crus-galli); assay: Test A preemergence; conditions: Echinochloa crus-galli, pre-emergence, 240 h, 0 to 100 scale where 0 is no effect and 100 is complete control, read-out: Barnyardgrass plant response rating
Summary of the method: as §1

[3] = system: giant foxtail (Setaria faberii); assay: Test A preemergence; conditions: Setaria faberi, pre-emergence, 240 h, 0 to 100 scale where 0 is no effect and 100 is complete control, read-out: Foxtail, Giant plant response rating
Summary of the method: as §1

[4] = system: pigweed (Amaranthus retroflexus); assay: Test A preemergence; conditions: Amaranthus retroflexus, pre-emergence, 240 h, 0 to 100 scale where 0 is no effect and 100 is complete control, read-out: Pigweed plant response rating
[5] = system: ragweed (common ragweed, Ambrosia elatior); assay: Test A preemergence; conditions: Ambrosia artemisiifolia, pre-emergence, 240 h, 0 to 100 scale where 0 is no effect and 100 is complete control, read-out: Ragweed plant response rating
Summary of the method: as §1

[6] = system: ryegrass, Italian (Italian ryegrass, Lolium multiflorum); assay: Test A preemergence; conditions: Lolium multiflorum, pre-emergence, 240 h, 0 to 100 scale where 0 is no effect and 100 is complete control, read-out: Ryegrass, Italian plant response rating
Summary of the method: as §1

[7] = system: Galium (catchweed bedstraw, Galium aparine); assay: Test A postemergence; conditions: Galium, post-emergence, 240 h, read-out: Galium plant response rating (0 to 100 scale)
Summary of the method: as §1

Kochia (Kochia scoparia) [8] = assay: Test A postemergence; conditions: Bassia scoparia, post-emergence, 240 h, read-out: Kochia plant response rating (0 to 100 scale)
Summary of the method: as §1

[9] = system: barnyardgrass (Echinochloa crus-galli); assay: Test A postemergence; conditions: Echinochloa crus-galli, post-emergence, 240 h, read-out: Barnyardgrass plant response rating (0 to 100 scale)
Summary of the method: as §1

[10] = system: blackgrass (Alopecurus myosuroides); assay: Test A postemergence; conditions: Alopecurus myosuroides, post-emergence, 240 h, read-out: Blackgrass plant response rating (0 to 100 scale)
Summary of the method: as §1

corn (Zea mays) = assay: Test A postemergence; conditions: Zea mays, post-emergence, 240 h, read-out: Corn plant response rating (0 to 100 scale)
Summary of the method: as §1

[11] = system: giant foxtail (Setaria faberii); assay: Test A postemergence; conditions: Setaria faberi, post-emergence, 240 h, read-out: Foxtail, Giant plant response rating (0 to 100 scale)
Summary of the method: as §1

[12] = system: pigweed (Amaranthus retroflexus); assay: Test A postemergence; conditions: Amaranthus retroflexus, post-emergence, 240 h, read-out: Pigweed plant response rating (0 to 100 scale)
Summary of the method: as §1

[13] = system: ragweed (common ragweed, Ambrosia elatior); assay: Test A postemergence; conditions: Ambrosia artemisiifolia, post-emergence, 240 h, read-out: Ragweed plant response rating (0 to 100 scale)
Summary of the method: as §1

[14] = system: ryegrass, Italian (Italian ryegrass, Lolium multiflorum); assay: Test A postemergence; conditions: Lolium multiflorum, post-emergence, 240 h, read-out: Ryegrass, Italian plant response rating (0 to 100 scale)
Summary of the method: as §1

[15] = system: wheat (Triticum aestivum); assay: Test A postemergence; conditions: Triticum aestivum, post-emergence, 240 h, Postemergence, 31 g ai/ha; 0 is no effect, 100 is complete control; read-out: Wheat plant response rating (0 to 100 scale)
Summary of the method: as §1

[16] = system: barnyardgrass (Echinochloa crus-galli); assay: Test B flooded paddy test; conditions: Echinochloa crus-galli, 250 g ai/ha, Flood; 0 to 100 scale where 0 is no effect and 100 is complete control; read-out: Barnyardgrass plant response rating
Summary of the method: (§2)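 2-leaf plants; pots flooded 3 cm over soil; cpd added to paddy water; depth held; greenhouse 13–15 d; visual rating vs controls, 0 = no effect, 100 = complete control.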

[17] = system: ducksalad (Heteranthera limosa); assay: Test B flooded paddy test; conditions: Heteranthera limosa, 250 g ai/ha, Flood; 0 to 100 scale where 0 is no effect and 100 is complete control; read-out: Ducksalad plant response rating
Summary of the method: as §2

rice (Oryra sativa) = assay: Test B flooded paddy test; conditions: Oryza sativa, 250 g ai/ha, Flood; 0 to 100 scale where 0 is no effect and 100 is complete control; read-out: Rice plant response rating
Summary of the method: as §2

[18] = system: sedge, umbrella (small-flower umbrella sedge, Cyperus difformis); assay: Test B flooded paddy test; conditions: Cyperus difformis, 250 g ai/ha, Flood; 0 to 100 scale where 0 is no effect and 100 is complete control; read-out: Sedge, Umbrella plant response rating
Summary of the method: as §2

[19] = 125 g ai/ha, preemergence, visual injury rating, approximately 10 d
[20] = 125 g ai/ha, postemergence, visual injury vs untreated controls after approx. 10 d, 0 = no effect, 100 = complete control
[21] = Postemergence, 31 g ai/ha, 0 is no effect, 100 is complete control

CN1C[C@H](c2ccc(Cl)c(F)c2)[C@@H](C(=O)Nc2cccc(F)c2F)C1=O [Compound 1265]
pest or weed control at 31 g/ha (Kochia (Kochia scoparia) [1]; 31 g ai/ha, Preemergence): 30%
pest or weed control at 125 g/ha (Kochia (Kochia scoparia) [1]; [19]): 70%
pest or weed control at 31 g/ha ([2]; 31 g ai/ha, Preemergence): 80%
pest or weed control at 125 g/ha [2, 19]: 90%
pest or weed control at 31 g/ha ([3]; 31 g ai/ha, Preemergence): 90%
pest or weed control at 125 g/ha [3, 19]: 90%
pest or weed control at 31 g/ha ([4]; 31 g ai/ha, Preemergence): 0%
pest or weed control at 125 g/ha [4, 19]: 80%
pest or weed control at 31 g/ha ([5]; 31 g ai/ha, Preemergence): 0%
pest or weed control at 125 g/ha [5, 19]: 0%
pest or weed control at 31 g/ha ([6]; 31 g ai/ha, Preemergence): 50%
pest or weed control at 125 g/ha [6, 19]: 60%
pest or weed control at 125 g/ha [7, 20]: 60%
pest or weed control at 31 g/ha [7, 21]: 60%
pest or weed control at 125 g/ha (Kochia (Kochia scoparia) [8]; [20]): 70%
pest or weed control at 31 g/ha (Kochia (Kochia scoparia) [8]; [21]): 50%
pest or weed control at 125 g/ha [9, 20]: 90%
pest or weed control at 31 g/ha [9, 21]: 80%
pest or weed control at 125 g/ha [10, 20]: 50%
pest or weed control at 31 g/ha [10, 21]: 0%
plant injury at 125 g/ha (corn (Zea mays); [20]): 70%
plant injury at 31 g/ha (corn (Zea mays); [21]): 30%
pest or weed control at 125 g/ha [11, 20]: 80%
pest or weed control at 31 g/ha [11, 21]: 80%
pest or weed control at 125 g/ha [12, 20]: 70%
pest or weed control at 31 g/ha [12, 21]: 30%
pest or weed control at 125 g/ha [13, 20]: 30%
pest or weed control at 31 g/ha [13, 21]: 0%
pest or weed control at 125 g/ha [14, 20]: 30%
pest or weed control at 31 g/ha [14, 21]: 0%
plant injury at 31 g/ha [15]: 0%
pest or weed control at 250 g/ha [16]: 60%
pest or weed control at 250 g/ha [17]: 90%
pest or weed control at 250 g/ha (rice (Oryra sativa)): 45%
pest or weed control at 250 g/ha [18]: 0%
